Reference: patent US20260364175A1, “COMPOSITIONS FOR DRUG ADMINISTRATION” (Aegis Therapeutics, LLC, priority 2018, published 2026)
Like-named read-outs stand apart in the source and are kept apart here.

Assays:
[1] = test system: Candida albicans (ATCC No. 10231); test: Antimicrobial activity, log reduction of cfu; type: cell-based
Text: (§1) The viable microorganisms used in the invention were not more than five passages removed from the original ATCC culture. As described herein, one passage is defined as the transfer of organisms from an established culture to fresh medium and all transfers are counted.
(§2) Cultures received from the ATCC are resuscitated according to the directions provided by the ATTC. Cells grown in broth were pelleted by centrifugation, resuspended in 1/20th the volume of fresh maintenance broth, and combined with an equal volume of 20% (v/v in water) sterile glycerol. Cells grown on agar were scraped from the surface into the maintenance broth also containing 10% glycerol broth. Small aliquots of the suspension were dispensed into sterile vials and the vials were stored in liquid nitrogen or in a mechanical freezer at a temperature no higher than about −50 °C. When a fresh seed-stock vial was required, it was removed and used to inoculate a series of working stock cultures. These working stock cultures were then used periodically (each day in the case of bacteria and yeast) to start the inoculum culture.
(§3) The culture conditions for the inoculum culture is substantially as described in Table IV. For example, suitable media can include but is not limited to, Soybean-Casein Digest or Sabouraud Dextrose Agar Medium. […]
(§4) The suspension should be refrigerated if it is not used within 2 hours. To confirm the initial cfu per mL estimate, the number of cfu per mL in each suspension was determined using the conditions of media and microbial recovery incubation times listed in Table IV (e.g., from about 3 to about 7 days). This value serves to calibrate the size of inoculum used in the test. The bacterial and yeast suspensions were used within 24 hours of harvest; whereas the fungal preparation can be stored under refrigeration for up to 7 days.
(§5) To determine which alkylglycoside formulations have antibacterial activity, the formulations were prepared in phosphate buffered saline (PBS) at pH 7. As a source of nutrition, either 1.5 mg/mL bovine serum albumin (BSA; see Tables V and VI) or 1 mg/mL of PYY was added (see Table VII) to the medium. BSA (CAS Number: 9048-46-8) was obtained from Sigma-Aldrich, St. Louis, MO, USA, n-dodecyl-4-O-α-D-glucopyranosyl-β-D-glucopyranoside and n-tetradecyl-4-O-α-D-glucopyranosyl-β-D-glucopyranoside were obtained from Anatrace Inc., Maumee, OH, USA, and PYY was obtained from Bachem California Inc., Torrance, CA, USA.
(§6) Antibacterial activity of the alkylglycosides were conducted in four sterile, capped bacteriological containers of suitable size into which a sufficient volume of alkylglycoside solution had been transferred. Each container was inoculated with one of the prepared and standardized inoculums and mixed. The volume of the suspension inoculum was between about 0.5% and about 1.0% of the volume of the alkylglycoside solution. […]. To determine the level of inhibition of growth, or reduction of growth based on a logarithmic scale, the initial concentration of viable microorganisms in each test preparation was estimated based on the concentration of microorganisms in each of the standardized inoculum as determined by the plate-count method. The inoculated containers were then incubated at about 22.5 °C±2.5. The growth or non-growth of the microorganisms in each culture/container were again determined at day 14 and day 28. The number of cfu present in each calculation was determined by the plate-count procedure standard in the art for the applicable intervals. The change in the orders of magnitude of bacterium and/or fungi was then determined by subtracting the first calculated log 10 values of the concentrations of cfu per mL present at the start or beginning (e.g., day 0), from the log 10 values of the concentration of cfu per mL for each microorganism at the applicable test intervals (e.g., day 14 and day 28; see Tables V, VI and VII).

[2] = test system: Aspergillus niger (ATCC No. 16404); test: Antimicrobial activity, log reduction of cfu; type: cell-based; settings: for log reduction at […]: Aspergillus niger
Text: as §1, §2, §3, §4, §5, §6

[3] = rat, in vivo
Procedure: Each set of drug solutions is administered to six groups of eight rats each by 20 uL instillation to a single nare of each animal. […] After the last blood sample is collected each animal is euthanized with CO2. […] Plasma samples are stored at −70 °C until analyzed. […] The concentration vs time data are plotted to determine the Cmax at each alkylsaccharide concentration and the ratio of Cmax with and without alkylsaccharide present is calculated and recorded as shown in Table XIX.

[4] = test system: Staphylococcus aureus (ATCC No. 6538); test: Antibacterial activity, log reduction of cfu; type: cell-based
Text: as §1, §2, §3, §4, §5, §6

[5] = test system: Escherichia coli (ATCC No. 8739); test: Antibacterial activity, log reduction of cfu; type: cell-based; settings: Escherichia coli
Text: as §1, §2, §3, §4, §5, §6

[6] = Oral phenylephrine tablet bioavailability in a canine model; type: in vivo, dog; settings: compressed tablets
Procedure: In a canine model, subjects were dosed orally with various phenylephrine (PE) tablet formulations, and blood samples were taken to determine the rate of parent phenyl ethyl phenylephrine absorption. Blood levels of parent phenylephrine were measured. Three subject groups were created with each alkylsaccharide test group containing five subjects in each test group. All subject groups received 10 mg of phenylephrine as a single tablet. Each subject was in the fasting state for overnight and two hours post dose. Blood samples were taken at pre-dose, 5, 10, 15, 30, 45 min., 1, 2, and 3 hours.
Comparator was the standard 30 mg (total weight including excipients) phenylephrine tablet was no absorption enhancer. Group number 2 tablets contain the alkylsaccharide designated A3, which is n-dodecyl-beta-D-maltoside in the amounts of 2.5 mg, 5 mg, and 7.5 mg, respectively. Group number three tablets contain the alkylsaccharide designated B3, which is sucrose monododecanoate, in the amounts of 5 mg, 10 mg, and 20 mg, respectively.

blood glucose = test: Ocular administration of insulin plus absorption enhancer, blood glucose in anesthetized rats; type: in vivo, rat (male Sprague-Dawley); settings: for Blood Glucose: insulin eye drops + 0.50%

CCCCCCCCCCCCO[C@@H]1O[C@H](CO)[C@@H](O[C@H]2O[C@H](CO)[C@@H](O)[C@H](O)[C@H]2O)[C@H](O)[C@H]1O [Dodecyl Maltoside, n-Dodecyl-4-O-α-D-glucopyranosyl-β-D-glucopyranoside]
log reduction at […] ([1]; ATCC10231, 336 h): ≥ 4.5
log reduction at […] ([1]; ATCC10231, 336 h, read-out: log reduction of microorganisms): 3
log reduction at […] ([1]; ATCC10231, 672 h): ≥ 4.5
log reduction at […] ([1]; ATCC10231, 672 h, read-out: log reduction of microorganisms): ≥ 5.3
log reduction at […] ([2]; ATCC16404, 336 h): 4.7
log reduction at […] ([2]; ATCC16404, 336 h, read-out: log reduction of microorganisms): 0.7
log reduction at […] ([2]; ATCC16404, 672 h): 4.7
growth from initial count ([2]; […], day 28): No growth
Ratio Cmax(alkylsacch)/Cmax(No alkylsacch) [3]: ≥1.5
log reduction at […] ([4]; ATCC6538, 336 h): ≥ 4.9
log reduction at […] ([4]; ATCC6538, 336 h, read-out: log reduction of microorganisms): ≥ 5.2
log reduction at […] ([4]; ATCC6538, 672 h): ≥ 4.9
log reduction at […] ([4]; ATCC6538, 672 h, read-out: log reduction of microorganisms): ≥ 5.2
log reduction at […] ([5]; ATCC8739, 336 h): ≥ 5
log reduction at […] ([5]; ATCC8739, 672 h): ≥ 5
log reduction at […] ([5]; ATCC8739, 672 h, read-out: log reduction of microorganisms): 0.1
increase of oral bioavailability of phenylephrine [6]: up to 56%
effect on ocular insulin absorption (blood glucose; 0.5% and […] enhancer with insulin eye drops): equally effective
effect on blood glucose / ocular insulin absorption (blood glucose; 0.5% enhancer with 0.2% insulin eye drops): maintained in the normoglycemic (80-120 mg/dl) or near-normoglycemic (120-160 mg/dl) range
effect on ocular insulin absorption (alkyl chain length comparison) (blood glucose; alkylmaltosides with insulin eye drops): more effective
Blood Glucose (blood glucose; 0 min): 379 ± 4 mg/dL
Blood Glucose (blood glucose; 30 min): 297 ± 18 mg/dL
Blood Glucose (blood glucose; 60 min): 188 ± 25 mg/dL
Blood Glucose (blood glucose; 90 min): 141 ± 13 mg/dL
Blood Glucose (blood glucose; 120 min): 123 ± 5 mg/dL
Blood Glucose (blood glucose; -10 min (pre-dose)): 366 ± 12 mg/dL
Blood Glucose (blood glucose; -20 min (pre-dose)): 375 ± 9 mg/dL
